Assays:
[1] = test system: MALME-3M; assay: NCI screen, growth of human tumor cells: Melanoma MALME-3M; type: cell-based; details: MALME-3M (Melanoma), 10^−4 molar
How it was run: (§1)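 The NCI screen tests each compound on human cancer cell lines and reports percent growth. Concentrations are given in molar units; the number of data points per compound is sixty at minimum.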

[2] = test system: DU-145; assay: NCI screen, growth of human tumor cells: Prostate Cancer DU-145; type: cell-based; details: DU-145 (Prostate Cancer), 10^−4 molar
How it was run: as §1

[3] = test system: MDA-MB-231/ATCC; assay: NCI screen, growth of human tumor cells: Breast Cancer MDA-MB-231/ATCC; type: cell-based; details: MDA-MB-231/ATCC (Breast Cancer), 10^−4 molar
How it was run: as §1

[4] = test system: LOXIMVI; assay: NCI screen, growth of human tumor cells: Melanoma LOXIMVI; type: cell-based; details: LOXIMVI (Melanoma), 10^−4 molar
How it was run: as §1

[5] = test system: U-251; assay: NCI screen, growth of human tumor cells: CNS Cancer U-251; type: cell-based; details: U-251 (CNS Cancer), 10^−4 molar
How it was run: as §1

[6] = test system: HCT-15; assay: NCI screen, growth of human tumor cells: Colon Cancer HCT-15; type: cell-based; details: HCT-15 (Colon Cancer), 10^−4 molar
How it was run: as §1

[7] = test system: HT29; assay: NCI screen, growth of human tumor cells: Colon Cancer HT29; type: cell-based; details: HT-29, 10^−4 molar
How it was run: as §1

[8] = test system: UACC-62; assay: NCI screen, growth of human tumor cells: Melanoma UACC-62; type: cell-based; details: UACC-62 (Melanoma), 10^−4 molar
How it was run: as §1

[9] = test system: NCI-H460; assay: NCI screen, growth of human tumor cells: Non-Small Cell Lung NCI-H460; type: cell-based; details: NCI-H460 (Non-Small Cell Lung), 10^−4 molar
How it was run: as §1

[10] = test system: OVCAR-3; assay: NCI screen, growth of human tumor cells: Ovarian Cancer OVCAR-3; type: cell-based; details: OVCAR-3 (Ovarian Cancer), 10^−4 molar
How it was run: as §1

[11] = test system: MCF 7; assay: NCI screen, growth of human tumor cells: Breast Cancer MCF 7; type: cell-based; details: MCF 7 (Breast Cancer), 10^−4 molar
How it was run: as §1

[12] = test system: NCI-H23; assay: NCI screen, growth of human tumor cells: Non-Small Cell Lung NCI-H23; type: cell-based; details: NCI-H23 (Non-Small Cell Lung), 10^−4 molar
How it was run: as §1

[13] = test system: MDA-MB-435; assay: NCI screen, growth of human tumor cells: Breast Cancer MDA-MB-435; type: cell-based; details: MDA-MB-435 (Breast Cancer), 10^−4 molar
How it was run: as §1

[14] = test system: NCI-H522; assay: NCI screen, growth of human tumor cells: Non-Small Cell Lung NCI-H522; type: cell-based; details: NCI-H522 (Non-Small Cell Lung), 10^−4 molar
How it was run: as §1

[15] = test system: HCC-2998; assay: NCI screen, growth of human tumor cells: HCC-2998 (listed under Non-Small Cell Lung); type: cell-based; details: HCC-2998 (under Non-Small Cell Lung), 10^−4 molar
How it was run: as §1

[16] = test system: SN12C; assay: NCI screen, growth of human tumor cells: Renal Cancer SN12C; type: cell-based; details: SN12C (Renal Cancer), 10^−4 molar
How it was run: as §1

[17] = test system: SF-295; assay: NCI screen, growth of human tumor cells: CNS Cancer SF-295; type: cell-based; details: SF-295 (CNS Cancer), 10^−4 molar
How it was run: as §1

[18] = test system: KM12; assay: NCI screen, growth of human tumor cells: Colon Cancer KM12; type: cell-based; details: KM12 (Colon Cancer), 10^−4 molar
How it was run: as §1

[19] = test system: SF-268; assay: NCI screen, growth of human tumor cells: CNS Cancer SF-268; type: cell-based; details: SF-268 (CNS Cancer), 10^−4 molar
How it was run: as §1

[20] = test system: SF-539; assay: NCI screen, growth of human tumor cells: CNS Cancer SF-539; type: cell-based; details: SF-539 (CNS Cancer), 10^−4 molar
How it was run: as §1

[21] = Water solubility noted at isolation; type: physicochemical; details: observation on the isolated product
Procedure: To a solution of 0.8 g of ethylene bromomethanedisulfonate (91-5) in 50 mL of glyme with 0.2 g of NaH was added followed by 0.6 g of the anhydride of 1,2-ethanedisulfonic acid. After 24 hrs, the solvent was removed and the residue taken up in 10 mL of acetone to give 0.5 g of water soluble 96-13.
To a solution of 0.58 g of ethylene methanedisulfonate in 50 mL of glyme and 0.2 g of NaH was added 0.65 g of 8-quinolinesulfonyl chloride. After 3 hrs., the solution was filtered, and the solid was washed with CH2Cl2 and dried overnight to give 1.155 g of a mixture of NaCl, Na2CO3, and product. A sample was H2O soluble and the calculated yield, based on assumption of the NaCl and Na2CO3, was 0.848 g (71%) of 97-4.

[22] = test system: MDA-N; assay: NCI screen, growth of human tumor cells: Breast Cancer MDA-N; type: cell-based; details: 10^−4 molar
Procedure: (§2) In the NCI screening process, each compound was tested and described by a minimum of 60 data points. The test data include, but are not limited to the type of cancer, the molar concentration used in the screen, and the percent growth of the cancer. In some cases, NMR and elemental analysis were used for structural assignment.

[23] = test system: human cancer cells; assay: NCI screen summary over the cancers tested (negative growth of human cancer cells); type: cell-based; details: 10^−4 M conc.; cancers with negative growth / cancers tested
Procedure: as §2
The derivatives in the tables are grouped using the same category as in the tables 1-6.

[24] = test system: OVCAR-4; assay: NCI screen, growth of human tumor cells: Ovarian Cancer OVCAR-4; type: cell-based; details: OVCAR-4 (Ovarian Cancer), 10^−4 molar
How it was run: as §1

[25] = test system: OVCAR-8; assay: NCI screen, growth of human tumor cells: Ovarian Cancer OVCAR-8; type: cell-based; details: OVCAR-8 (Ovarian Cancer), 10^−4 molar
How it was run: as §1

[26] = test system: IGROVI; assay: NCI screen, growth of human tumor cells: Ovarian Cancer IGROVI; type: cell-based; details: IGROVI (Ovarian Cancer), 10^−4 molar
How it was run: as §1

[27] = test system: MCF7/ADR-RES; assay: NCI screen, growth of human tumor cells: Breast Cancer MCF7/ADR-RES; type: cell-based; details: MCF7/ADR-RES (Breast Cancer), 10^−4 molar
How it was run: as §1

[28] = test system: SK-MEL-2; assay: NCI screen, growth of human tumor cells: Melanoma SK-MEL-2; type: cell-based; details: SK-MEL-2 (Melanoma), 10^−4 molar
How it was run: as §1

[29] = test system: HCT-116; assay: NCI screen, growth of human tumor cells: Colon Cancer HCT-116; type: cell-based; details: HCT-116 (Colon Cancer), 10^−4 molar
How it was run: as §1

[30] = test system: EKVX; assay: NCI screen, growth of human tumor cells: Non-Small Cell Lung EKVX; type: cell-based; details: EKVX (Non-Small Cell Lung), 10^−4 molar
How it was run: as §1

[31] = test system: M14; assay: NCI screen, growth of human tumor cells: Melanoma M14; type: cell-based; details: M14 (Melanoma), 10^−4 molar
How it was run: as §1

[32] = test system: SK-MEL-5; assay: NCI screen, growth of human tumor cells: Melanoma SK-MEL-5; type: cell-based; details: SK-MEL-5 (Melanoma), 10^−4 molar
How it was run: as §1

[33] = test system: UACC-257; assay: NCI screen, growth of human tumor cells: Melanoma UACC-257; type: cell-based; details: UACC-257 (Melanoma), 10^−4 molar
How it was run: as §1

[34] = test system: CCRF-CEM; assay: NCI screen, growth of human tumor cells: Leukemia CCRF-CEM; type: cell-based; details: CCRF-CEM (Leukemia), 10^−4 molar
How it was run: as §1

[35] = test system: HOP-92; assay: NCI screen, growth of human tumor cells: Non-Small Cell Lung HOP-92; type: cell-based; details: HOP-92 (Non-Small Cell Lung), 10^−4 molar
How it was run: as §1

[36] = test system: ACHN; assay: NCI screen, growth of human tumor cells: Renal Cancer ACHN; type: cell-based; details: ACHN (Renal Cancer), 10^−4 molar
How it was run: as §1

[37] = test system: CAKI-1; assay: NCI screen, growth of human tumor cells: Renal Cancer CAKI-1; type: cell-based; details: CAKI-1 (Renal Cancer), 10^−4 molar
How it was run: as §1

[38] = test system: SNB-19; assay: NCI screen, growth of human tumor cells: CNS Cancer SNB-19; type: cell-based; details: SNB-19 (CNS Cancer), 10^−4 molar
How it was run: as §1

[39] = test system: K562; assay: NCI screen, growth of human tumor cells: Leukemia K562; type: cell-based; details: K562 (Leukemia), 10^−4 molar
How it was run: as §1

[40] = test system: MOLT-4; assay: NCI screen, growth of human tumor cells: Leukemia MOLT-4; type: cell-based; details: MOLT-4 (Leukemia), 10^−4 molar
How it was run: as §1

[41] = test system: 786-0; assay: NCI screen, growth of human tumor cells: Renal Cancer 786-0; type: cell-based; details: 786-0 (Renal Cancer), 10^−4 molar
How it was run: as §1

[42] = test system: SNB-75; assay: NCI screen, growth of human tumor cells: CNS Cancer SNB-75; type: cell-based; details: SNB-75 (CNS Cancer), 10^−4 molar
How it was run: as §1

[43] = test system: lymphocytic leukemia, lymphoid leukemia, melanocarcinoma, human breast xenograft and ovarian carcinoma; details: disclosure of U.S. Pat. No. 4,950,768; cited from earlier work

## O=S1(=O)OCCOS(=O)(=O)C1c1cccc2cccnc12 [NSC 698122, ethylene 8-quinolylmethanedisulfonate]
[1]
  percent of growth of human tumor cells: 29%
[2]
  percent of growth of human tumor cells: 2%
[3]
  percent of growth of human tumor cells: 26%
[4]
  percent of growth of human tumor cells: −43%
[5]
  percent of growth of human tumor cells: −53%
[6]
  percent of growth of human tumor cells: 18%
[7]
  % Growth: −64%
[8]
  percent of growth of human tumor cells: −46%
[9]
  percent of growth of human tumor cells: −40%
[10]
  percent of growth of human tumor cells: 25%
[11]
  percent of growth of human tumor cells: 12%
[12]
  percent of growth of human tumor cells: 27%
[13]
  percent of growth of human tumor cells: 19%
[14]
  percent of growth of human tumor cells: −40%
[15]
  percent of growth of human tumor cells: −12%
[16]
  percent of growth of human tumor cells: 28%
[17]
  percent of growth of human tumor cells: 18%
[18]
  percent of growth of human tumor cells: 7%
[19]
  percent of growth of human tumor cells: 24%
[20]
  percent of growth of human tumor cells: 30%
[21]
  water solubility: H2O soluble
[22]
  percent of growth of human tumor cells: 10%
[23]
  Percentage of cancers showing negative growth cancers tested: 10^−4 M conc. = 8/31 = 25.8%
[24]
  percent of growth of human tumor cells: 30%
[25]
  percent of growth of human tumor cells: 19%
[26]
  percent of growth of human tumor cells: 17%
[27]
  percent of growth of human tumor cells: −5%
[28]
  percent of growth of human tumor cells: 24%
[29]
  percent of growth of human tumor cells: 16%
[30]
  percent of growth of human tumor cells: 28%
[31]
  percent of growth of human tumor cells: 10%
[32]
  percent of growth of human tumor cells: 15%
[33]
  percent of growth of human tumor cells: 13%

## O=S1(=O)CS(=O)(=O)OCCO1 [NSC 348948, ethylene methanedisulfonate]
[34]
  percent of growth of human tumor cells: −3%
[35]
  percent of growth of human tumor cells: 6%
[36]
  percent of growth of human tumor cells: 22%
[37]
  percent of growth of human tumor cells: −6%
[38]
  percent of growth of human tumor cells: 18%
[8]
  percent of growth of human tumor cells: −13%
other
  melting point: 176 to 180 °C
[39]
  percent of growth of human tumor cells: 5%
[9]
  percent of growth of human tumor cells: 6%
[40]
  percent of growth of human tumor cells: 5%
[41]
  percent of growth of human tumor cells: 24%
[42]
  percent of growth of human tumor cells: 18%
[43]
  effectiveness in the treatment of mice cancers: effective
